{"source": "paper PMC6736568", "about": "“Discovery of Novel Anti-cryptosporidial Activities From Natural Products by in vitro High-Throughput Phenotypic Screening” (Frontiers in Microbiology, 2019)", "key": {"Cryptosporidium parvum": {"test_system": "Cryptosporidium parvum", "assay": "qRT-PCR assay of the growth of C. parvum in vitro in HCT-8 host cells (primary and secondary screening, EC50)", "format": "cell-based", "conditions": "Cryptosporidium parvum, HCT-8"}, "in vitro": {"assay": "in vitro", "conditions": "for cytotoxicity at 41 h, 10 µM: human"}, "[1]": {"conditions": "primary screening at 10 uM, read-out: Inhibition (%)"}, "[2]": {"conditions": "primary screening at 10 uM, treated vs control"}}, "note": "Where a name gives a salt, the structure may show the parent alone. Read-outs that look alike come from different tables or passages of the source."}
{"smiles": "O=c1c2ccccc2oc2ccccc12", "note": "[XANTHONE]", "values": [{"measurement": "inhibition at 10 µM", "setting": "Cryptosporidium parvum; [1]", "result": 0.45, "unit": "%"}, {"measurement": "cytotoxicity at 41 h, 10 µM", "setting": "in vitro", "result": 8.9, "unit": "%"}, {"measurement": "Hs18S ΔCT", "setting": "HCT-8 host cells (Hs18S); human, 41 h, 10 μM", "result": 0.13}]}
{"smiles": "Nc1nc(=O)c2[nH]c(=O)cnc2[nH]1", "note": "[XANTHOPTERIN]", "values": [{"measurement": "inhibition at 10 µM", "setting": "Cryptosporidium parvum; [1]", "result": 22.7, "unit": "%"}, {"measurement": "cytotoxicity at 41 h, 10 µM", "setting": "in vitro", "result": 27.9, "unit": "%"}, {"measurement": "Hs18S ΔCT", "setting": "HCT-8 host cells (Hs18S); human, 41 h, 10 μM", "result": 0.47}]}
{"smiles": "COc1cc(O)c(C(C)=O)c(OC)c1", "note": "[XANTHOXYLIN]", "values": [{"measurement": "inhibition at 10 µM", "setting": "Cryptosporidium parvum; [1]", "result": -20.7, "unit": "%"}, {"measurement": "cytotoxicity at 41 h, 10 µM", "setting": "in vitro", "result": 5.4, "unit": "%"}, {"measurement": "Hs18S ΔCT", "setting": "HCT-8 host cells (Hs18S); human, 41 h, 10 μM", "result": 0.08}]}
{"smiles": "CC1(C)C=Cc2cc3ccc(=O)oc3cc2O1", "note": "[XANTHYLETIN]", "values": [{"measurement": "inhibition at 10 µM", "setting": "Cryptosporidium parvum; [1]", "result": 1.74, "unit": "%"}, {"measurement": "cytotoxicity at 10 µM", "setting": "in vitro", "result": 8.1, "unit": "%"}, {"measurement": "Hs18S ΔCT", "setting": "HCT-8 host cells (Hs18S); [2]", "result": 0.12}]}
{"smiles": "COC(=O)CC1C(C)(C)C(OC(C)=O)[C@@H]2[C@@H](OC(C)=O)[C@]34O[C@@]2(O)[C@]1(C)C3CC[C@]1(C)C4=CC(=O)O[C@H]1c1ccoc1", "note": "(stereo partly shown) [XYLOCARPUS A]", "values": [{"measurement": "inhibition at 10 µM", "setting": "Cryptosporidium parvum; [1]", "result": -11.9, "unit": "%"}, {"measurement": "cytotoxicity at 41 h, 10 µM", "setting": "in vitro", "result": -39.2, "unit": "%"}, {"measurement": "Hs18S ΔCT", "setting": "HCT-8 host cells (Hs18S); human, 41 h, 10 μM", "result": -0.48}]}
{"smiles": "O=C(O)c1cc(O)c2cccc(O)c2n1", "note": "[X[…]]", "values": [{"measurement": "inhibition at 10 µM", "setting": "Cryptosporidium parvum", "result": 20.3, "unit": "%"}, {"measurement": "cytotoxicity at 10 µM", "setting": "in vitro", "result": -24.4, "unit": "%"}, {"measurement": "Hs18S ΔCT", "setting": "HCT-8 host cells (Hs18S); [2]", "result": -0.32}]}
{"smiles": "COC(=O)[C@@H]1[C@H]2C[C@H]3c4[nH]c5ccccc5c4CCN3C[C@@H]2CC[C@@H]1O", "note": "[YOHIMBINE HYDROCHLORIDE]", "values": [{"measurement": "inhibition at 10 µM", "setting": "Cryptosporidium parvum; [1]", "result": 5.49, "unit": "%"}, {"measurement": "cytotoxicity at 41 h, 10 µM", "setting": "in vitro", "result": -36.5, "unit": "%"}, {"measurement": "Hs18S ΔCT", "setting": "HCT-8 host cells (Hs18S); human, 41 h, 10 μM", "result": -0.45}]}
{"smiles": "COC(=O)[C@@H]1C[C@H](OC(C)=O)C(=O)[C@H]2[C@@]1(C)CC[C@H]1C(=O)O[C@H](c3ccoc3)C[C@]21C", "note": "[[…]]", "values": [{"measurement": "inhibition at 10 µM", "setting": "Cryptosporidium parvum; [1]", "result": 16.7, "unit": "%"}, {"measurement": "cytotoxicity at 10 µM", "setting": "in vitro", "result": 30.5, "unit": "%"}, {"measurement": "Hs18S ΔCT", "setting": "HCT-8 host cells (Hs18S); [2]", "result": 0.53}]}
{"smiles": "C[N+]12CC[C@@]34c5ccccc5N5C(=O)C[C@@H]6OCC=C(C1)[C@H](C[C@@H]32)[C@@H]6[C@H]54", "note": "(stereo partly shown) [[…]]", "values": [{"measurement": "inhibition at 10 µM", "setting": "Cryptosporidium parvum; [1]", "result": -6.9, "unit": "%"}, {"measurement": "cytotoxicity at 10 µM", "setting": "in vitro", "result": 33.3, "unit": "%"}, {"measurement": "Hs18S ΔCT", "setting": "HCT-8 host cells (Hs18S); [2]", "result": 0.58}]}
{"smiles": "Cc1c(C)c2c(c(C)c1O)CCC(C)(CCCC(C)CCCC(C)CCCC(C)C)O2", "note": "(stereo not drawn) [alpha-TOCHOPHEROL]", "values": [{"measurement": "inhibition at 10 µM", "setting": "Cryptosporidium parvum; [1]", "result": -14.7, "unit": "%"}, {"measurement": "cytotoxicity at 10 µM", "setting": "in vitro", "result": 13.8, "unit": "%"}, {"measurement": "Hs18S ΔCT", "setting": "HCT-8 host cells (Hs18S); [2]", "result": 0.21}]}
{"smiles": "CC(=O)Oc1c(C)c(C)c2c(c1C)CCC(C)(CCCC(C)CCCC(C)CCCC(C)C)O2", "note": "(stereo not drawn) [alpha-TOCHOPHERYL ACETATE]", "values": [{"measurement": "inhibition at 10 µM", "setting": "Cryptosporidium parvum; [1]", "result": -13.6, "unit": "%"}, {"measurement": "cytotoxicity at 41 h, 10 µM", "setting": "in vitro", "result": -15.8, "unit": "%"}, {"measurement": "Hs18S ΔCT", "setting": "HCT-8 host cells (Hs18S); human, 41 h, 10 μM", "result": -0.21}]}
{"smiles": "CC(=O)O[C@H]1CC[C@]2(C)[C@H]3CC=C4[C@@H]5CC(C)(C)CC[C@]5(C)CC[C@@]4(C)[C@]3(C)CC[C@H]2C1(C)C", "note": "[beta-AMYRIN ACETATE]", "values": [{"measurement": "inhibition at 10 µM", "setting": "Cryptosporidium parvum; [1]", "result": 11.3, "unit": "%"}, {"measurement": "cytotoxicity at 41 h, 10 µM", "setting": "in vitro", "result": 0.5, "unit": "%"}, {"measurement": "Hs18S ΔCT", "setting": "HCT-8 host cells (Hs18S); human, 41 h, 10 μM", "result": 0.01}]}
{"smiles": "CC1(C)CC[C@]2(C)CC[C@]3(C)C(=CC[C@@H]4[C@@]5(C)CC[C@H](O)C(C)(C)[C@@H]5CC[C@]43C)[C@@H]2C1", "note": "[beta-AMYRIN]", "values": [{"measurement": "inhibition at 10 µM", "setting": "Cryptosporidium parvum; [1]", "result": -38.2, "unit": "%"}, {"measurement": "cytotoxicity at 10 µM", "setting": "in vitro", "result": -8.3, "unit": "%"}, {"measurement": "Hs18S ΔCT", "setting": "HCT-8 host cells (Hs18S); [2]", "result": -0.12}]}
{"smiles": "CC1=C(/C=C/C(C)=C/C=C/C(C)=C/C=C/C=C(C)/C=C/C=C(C)/C=C/C2=C(C)CCCC2(C)C)C(C)(C)CCC1", "note": "[beta-CAROTENE]", "values": [{"measurement": "inhibition at 10 µM", "setting": "Cryptosporidium parvum; [1]", "result": -34.8, "unit": "%"}, {"measurement": "cytotoxicity at 41 h, 10 µM", "setting": "in vitro", "result": 2.8, "unit": "%"}, {"measurement": "Hs18S ΔCT", "setting": "HCT-8 host cells (Hs18S); human, 41 h, 10 μM", "result": 0.04}]}
{"smiles": "CC12CCCC(O)(C1)C1CC(C)(C)C1CC2", "note": "(stereo not drawn) [beta-CARYOPHYLLENE ALCOHOL]", "values": [{"measurement": "inhibition at 10 µM", "setting": "Cryptosporidium parvum; [1]", "result": 24.2, "unit": "%"}, {"measurement": "cytotoxicity at 41 h, 10 µM", "setting": "in vitro", "result": 1.9, "unit": "%"}, {"measurement": "Hs18S ΔCT", "setting": "HCT-8 host cells (Hs18S); human, 41 h, 10 μM", "result": 0.03}]}
{"smiles": "CC[C@H](CC[C@@H](C)[C@H]1CC[C@H]2[C@@H]3CC=C4C[C@@H](O)CC[C@]4(C)[C@H]3CC[C@]12C)C(C)C", "note": "[beta-SITOSTEROL]", "values": [{"measurement": "inhibition at 10 µM", "setting": "Cryptosporidium parvum; [1]", "result": 91.7, "unit": "%"}, {"measurement": "inhibition at 3.3 µM", "setting": "Cryptosporidium parvum; secondary screening at 3.3 uM, read-out: % Inhibition (3.3 uM)", "result": 20, "unit": "%"}, {"measurement": "cytotoxicity at 10 µM", "setting": "in vitro", "result": 25.8, "unit": "%"}, {"measurement": "Hs18S ΔCT", "setting": "HCT-8 host cells (Hs18S); [2]", "result": 0.43}]}
{"smiles": "NC(C(=O)O)C(O)C(=O)O", "note": "(stereo not drawn) [d,l-threo-3-HYDROXYASPARTIC ACID]", "values": [{"measurement": "inhibition at 10 µM", "setting": "Cryptosporidium parvum; [1]", "result": 17.8, "unit": "%"}, {"measurement": "cytotoxicity at 41 h, 10 µM", "setting": "in vitro", "result": 10.7, "unit": "%"}, {"measurement": "Hs18S ΔCT", "setting": "HCT-8 host cells (Hs18S); human, 41 h, 10 μM", "result": 0.16}]}
{"smiles": "C=C(C)[C@H]1CC=C(C)CC1", "note": "[d-LIMONENE]", "values": [{"measurement": "inhibition at 10 µM", "setting": "Cryptosporidium parvum; [1]", "result": -6.54, "unit": "%"}, {"measurement": "cytotoxicity at 41 h, 10 µM", "setting": "in vitro", "result": -15.7, "unit": "%"}, {"measurement": "Hs18S ΔCT", "setting": "HCT-8 host cells (Hs18S); human, 41 h, 10 μM", "result": -0.21}]}
